# Reference: US20240365782A1, “USE OF 2-AMINO-3-METHYLHEXANOIC ACID IN PROMOTING PLANT GROWTH AND INCREASING YIELD” (NANJING AGRICULTURAL UNIVERSITY, priority 2021, published 2024)
# Tests used:
# hot pepper seedlings = assay: Stem and leaf treatment: growth of hot pepper seedlings; format: in vivo
# Method: (§1) In 2021, an experiment was conducted in a Changshanxiang Mingyang family farm (standard greenhouse nursery base) in Zhangjiagang city, Jiangsu province. A strawberry variety to be tested was Hongyan, a tomato variety was Qianxi, and a hot pepper variety was Sujiao No. 5. 2-amino-3-methylhexanoic acid was taken, dissolved with distilled water, and diluted with the distilled water to obtain a solution of 100 nM (14.5 μg/L), a blank control was additionally set, and 0.02% Tween 20 as a surfactant and 14-hydroxylated brassinosteroid (Sichuan New Sun company) with the concentration of 37.5 μg/L as a control agent were added at the same time. Each treatment was repeated three times, the plot area was 20 m^2, and the liquid injection volume per plot was 1 L. The treatment method was foliage spray, an investigation was conducted on day 9 after the application, and the results were shown in Tables 3-5 and FIG. 3-FIG. 5.
# cucumber seedlings = assay: Hydroponic treatment: rooting of radicle-removed cucumber seedlings; format: in vivo; conditions: for Lateral root number / Root length: cucumber seedlings, 6 days
# Source text: To further investigate a promoting effect of 2-amino-3-methylhexanoic acid on growth of plant roots, a model system for studying root generation, a radicle-removed cucumber seedling system, was selected. Four layers of wet gauze were spread on a bottom part of a seedling box, and healthy, full and uniform cucumber seeds (variety “Chuxiaqiuguan”, Ningyang County Luming Seed Co., Ltd., Shandong Province) were picked, washed with distilled water, uniformly spread on the gauze, and then covered with four layers of the wet gauze for keeping in a dark place. After kept in a dark place in a 25° C. culture room for 24 hours, the germinated cucumber seeds were taken out and buried in a position 1 cm below the soil, a plurality of plants with consistent growth vigor and completely unfolded two cotyledons were taken after 3 days, the roots were washed with the distilled water, the radicles were cut off, and the plants were fixed with sponge strips and placed in a centrifuge tube box. 400 mL of a 2-amino-3-methylhexanoic acid aqueous solution at concentrations of 0, 10, 100, and 1,000 nM, respectively was added to each box. The hydroponic plants were placed in the 25° C. culture room. After 6 days of light culture, the plants were taken out and the root length and number of newly generated roots were measured and recorded.
# strawberry plants = assay: Stem and leaf treatment: growth and yield of mature strawberry plants (field application); format: in vivo; conditions: for Leaf number / Leaf width / Plant height: mature strawberry plants; for Mass of fruits per plant / Number of fruits per plant: strawberries; for Chlorophyll content: strawberry leaves
# Method: (§2) 0.1 g of the rice leaves were accurately cut off for measuring the chlorophyll content. The rice leaves were extracted with 10 mL of an acetone ethanol extracting solution (80% acetone: 95% ethanol at a volume ratio of 1:1) for 24 hours in a dark place. A chlorophyll extracting stock solution was diluted by 3 times with the extracting solution as a reference solution, the light density values at wave lengths of 645 nm and 663 nm were measured with a spectrophotometer, and the chlorophyll content was calculated with a modifier formula of an Amnon method.
# On Feb. 27, 2021, an experiment was conducted in a greenhouse of a farm of Baitu town, Jurong city, Jiangsu province, and the strawberry variety to be tested was Hongyan. The 2-amino-3-methylhexanoic acid was taken, dissolved with distilled water, and gradiently diluted with the distilled water to obtain solutions of 1,000 nM and 100 nM, a blank control was additionally set, and 0.02% Tween 20 as a surfactant was added at the same time. Each treatment was repeated three times, the plot area was 100 m^2, and the liquid injection volume per plot was 4.5 L. Three times of field application were conducted on February 27, March 3, and Mar. 8, 2021, respectively. The treatment method was foliage spray. The plant height, the leaf number, the leaf width, the number of fruits per plant, and the mass of fruits per plant were investigated on March 8. 0.2 g of strawberry leaves were cut off at the same time for measuring the chlorophyll content.
# Achromobacter butyri = conditions: cited from earlier work
# rice seedlings = assay: Soaking seeds: effect on growth of rice seedlings; format: in vivo; conditions: for Chlorophyll content: rice leaves; for Chlorophyll content improved compared with the blank control / Plant height improved compared with the blank control / Root fresh weight / Root fresh weight improved compared with the blank control / Root length / Root length improved compared with the blank control / Plant height: rice seedlings; for Plant height: 3 leaves and 1 heart stage
# Method: Rice seeds (variety “Dengliangyou 2108”) were washed clean with distilled water, disinfected with 75% alcohol for 3 minutes, washed with the distilled water for 3 times, and then disinfected with NaClO (5%) for about 10 minutes, taken out, and washed with the distilled water. Residual water on the surfaces of the seeds was absorbed with clean filter paper until the surfaces were dry and clean. 50 g of the healthy, full and uniform seeds were picked and placed in 100-mL conical flasks. 50 mL of a 2-amino-3-methylhexanoic acid aqueous solution with the concentrations of 0 nM, 10 nM, 100 nM and 1,000 nM was added into each bottle respectively, the seeds were soaked for 5 days at room temperature and taken out, 100 rice seeds to be tested with a consistent germination state were respectively selected, uniformly sowed in a rice seedling tray, and covered with sterile nutrient soil, the seedling tray was placed in a culture room at 28° C., and when 3 leaves and 1 heart of the rice seedlings were grown, the plant height, the root length, the root fresh weight and the overground part fresh weight of the rice seedlings were respectively measured.
# as §2
# In the formula, Ch1a, Ch1b and Ch1t are the concentrations (mg/g·FW) of chlorophyll a, chlorophyll b and total chlorophyll, respectively; n is the dilution ratio; v is the volume of the extracting solution (L); m is the mass (g) of the leaves; and A663 and A645 are absorbance values of 663 nm and 645 nm, respectively.
# Pseudomonas aeruginosa = conditions: cited from earlier work
# Brevibacterium helvolum = conditions: cited from earlier work
# Aerobacter aerogenes = conditions: cited from earlier work
# strawberry seedlings = assay: Stem and leaf treatment: growth of strawberry seedlings; format: in vivo
# Method: as §1
# S. marcescens = conditions: cited from earlier work
# Bacillus subtilis = conditions: cited from earlier work
# E. coli B = conditions: cited from earlier work
# tomato seedlings = assay: Stem and leaf treatment: growth of tomato seedlings; format: in vivo
# Method: as §1
# P. fluorescens = conditions: cited from earlier work
# Escherichia coli K-12 = conditions: cited from earlier work
# A. ureafaciens = conditions: cited from earlier work
# [1] = foliage spray, day 9, 2-amino-3-methylhexanoic acid 14.5 μg/L (100 nM), 14-hydroxylated brassinosteroid 37.5 μg/L
# [2] = mature strawberry plants, 1,000 nM
# [3] = foliage spray, day 9, 2-amino-3-methylhexanoic acid 100 nM, 14-hydroxylated brassinosteroid 37.5 μg/L
smiles,measurement,setting,value
CCCC(C)C(N)C(=O)O (stereo not shown) [2-amino-3-methylhexanoic acid],Plant height improved compared with 14-hydroxylated brassinosteroid 37.5 μg/L,hot pepper seedlings; 14.5 μg/L,37%
same,Plant height improved compared with the blank control,hot pepper seedlings; 14.5 μg/L,60%
same,Root fresh weight improved compared with 14-hydroxylated brassinosteroid 37.5 μg/L,hot pepper seedlings; 14.5 μg/L,35%
same,Root fresh weight improved compared with the blank control,hot pepper seedlings; 14.5 μg/L,49%
same,Root length improved compared with 14-hydroxylated brassinosteroid 37.5 μg/L,hot pepper seedlings; 14.5 μg/L,7%
same,Root length improved compared with the blank control,hot pepper seedlings; 14.5 μg/L,46%
same,Plant height,hot pepper seedlings; [1],9.32 ± 0.32a cm
same,Root fresh weight,hot pepper seedlings; [1],4.67 ± 0.09a g
same,Root length,hot pepper seedlings; [1],4.53 ± 0.33a cm
same,Lateral root number,cucumber seedlings; hydroponic 10 nM,16.00 ± 1.73a piece
same,Root length,cucumber seedlings; hydroponic 10 nM,2.04 ± 0.67b cm
same,Lateral root number,cucumber seedlings; hydroponic 100 nM,19.33 ± 1.53a piece
same,Root length,cucumber seedlings; hydroponic 100 nM,5.36 ± 0.82a cm
same,Lateral root number,"cucumber seedlings; hydroponic 1,000 nM",14.33 ± 5.13a piece
same,Root length,"cucumber seedlings; hydroponic 1,000 nM",4.50 ± 1.28a cm
same,Cucumber root length improved compared with the blank control,cucumber seedlings; hydroponic 10 nM,33%
same,Number of root generation improved compared with the blank control,cucumber seedlings; hydroponic 10 nM,182%
same,Cucumber root length improved compared with the blank control,cucumber seedlings; hydroponic 100 nM,199%
same,Number of root generation (lateral root number) improved compared with the blank control,cucumber seedlings; hydroponic 100 nM,241%
same,Cucumber root length improved compared with the blank control,"cucumber seedlings; hydroponic 1,000 nM",154%
same,Number of root generation improved compared with the blank control,"cucumber seedlings; hydroponic 1,000 nM",153%
same,Chlorophyll content improved compared with the blank control,strawberry plants; [2],21%
same,Leaf number improved compared with the blank control,strawberry plants; [2],79%
same,Leaf width improved compared with the blank control,strawberry plants; [2],32%
same,Plant height improved compared with the blank control,strawberry plants; [2],49%
same,Leaf number,strawberry plants; foliage spray 100 nM,22.44 ± 4.32b leaf
same,Leaf width,strawberry plants; foliage spray 100 nM,5.33 ± 0.48b cm
same,Plant height,strawberry plants; foliage spray 100 nM,26.50 ± 3.60b cm
same,Leaf number,"strawberry plants; foliage spray 1,000 nM",26.00 ± 4.76a leaf
same,Leaf width,"strawberry plants; foliage spray 1,000 nM",6.59 ± 1.07a cm
same,Plant height,"strawberry plants; foliage spray 1,000 nM",36.60 ± 3.28a cm
same,Mass of fruits per plant,strawberry plants; foliage spray 100 nM,29.06 ± 0.76b g
same,Number of fruits per plant,strawberry plants; foliage spray 100 nM,8.32 ± 0.47b fruit
same,Mass of fruits per plant,"strawberry plants; foliage spray 1,000 nM",34.47 ± 0.58a g
same,Number of fruits per plant,"strawberry plants; foliage spray 1,000 nM",9.72 ± 0.43a fruit
same,Chlorophyll content,strawberry plants; foliage spray 100 nM,3.50 ± 0.30ab mg/g · FW
same,Chlorophyll content,"strawberry plants; foliage spray 1,000 nM",3.74 ± 0.65a mg/g · FW
same,Mass of fruits per plant improved compared to the blank control,"strawberry plants; strawberry plants, 1,000 nM",44%
same,Number of fruits per plant improved compared to the blank control,"strawberry plants; strawberry plants, 1,000 nM",39%
same,Inhibitory effect,Achromobacter butyri,slight inhibitory effect
same,Chlorophyll content,rice seedlings; seed soaking 10 nM,3.60 ± 0.055b mg/g · FW
same,Chlorophyll content,rice seedlings; seed soaking 100 nM,3.82 ± 0.079a mg/g · FW
same,Chlorophyll content,"rice seedlings; seed soaking 1,000 nM",3.63 ± 0.013b mg/g · FW
same,Chlorophyll content improved compared with the blank control,rice seedlings; seed soaking 10 nM,31%
same,Plant height improved compared with the blank control,rice seedlings; seed soaking 10 nM,9%
same,Root fresh weight,rice seedlings; seed soaking 10 nM,0.039 ± 0.002c g
same,Root fresh weight improved compared with the blank control,rice seedlings; seed soaking 10 nM,18%
same,Root length,rice seedlings; seed soaking 10 nM,8.34 ± 0.53b cm
same,Root length improved compared with the blank control,rice seedlings; seed soaking 10 nM,14%
same,Plant height,rice seedlings; seed soaking 10 nM,25.24 ± 0.82b cm
same,Chlorophyll content improved compared with the blank control,rice seedlings; seed soaking 100 nM,39%
same,Plant height improved compared with the blank control,rice seedlings; seed soaking 100 nM,29%
same,Root fresh weight,rice seedlings; seed soaking 100 nM,0.069 ± 0.007a g
same,Root fresh weight improved compared with the blank control,rice seedlings; seed soaking 100 nM,109%
same,Root length,rice seedlings; seed soaking 100 nM,9.30 ± 0.26a cm
same,Root length improved compared with the blank control,rice seedlings; seed soaking 100 nM,27%
same,Plant height,rice seedlings; seed soaking 100 nM,29.88 ± 0.16a cm
same,Chlorophyll content improved compared with the blank control,"rice seedlings; seed soaking 1,000 nM",32%
same,Plant height improved compared with the blank control,"rice seedlings; seed soaking 1,000 nM",13%
same,Root fresh weight,"rice seedlings; seed soaking 1,000 nM",0.052 ± 0.003b g
same,Root fresh weight improved compared with the blank control,"rice seedlings; seed soaking 1,000 nM",58%
same,Root length,"rice seedlings; seed soaking 1,000 nM",8.30 ± 0.17b cm
same,Root length improved compared with the blank control,"rice seedlings; seed soaking 1,000 nM",14%
same,Plant height,"rice seedlings; seed soaking 1,000 nM",26.20 ± 0.32b cm
same,Inhibitory effect,Pseudomonas aeruginosa,slight inhibitory effect
same,Inhibitory effect,Brevibacterium helvolum,no inhibitory effect
same,Inhibitory effect,Aerobacter aerogenes,no inhibitory effect
same,Plant height improved compared with 14-hydroxylated brassinosteroid 37.5 μg/L,strawberry seedlings; 14.5 μg/L,7%
same,Plant height improved compared with the blank control,strawberry seedlings; 14.5 μg/L,31%
same,Root fresh weight improved compared with 14-hydroxylated brassinosteroid 37.5 μg/L,strawberry seedlings; 14.5 μg/L,65%
same,Root fresh weight improved compared with the blank control,strawberry seedlings; 14.5 μg/L,70%
same,Root length improved compared with 14-hydroxylated brassinosteroid 37.5 μg/L,strawberry seedlings; 14.5 μg/L,24%
same,Root length improved compared with the blank control,strawberry seedlings; 14.5 μg/L,23%
same,Plant height,strawberry seedlings; [3],7.00 ± 0.37a cm
same,Root fresh weight,strawberry seedlings; [3],8.49 ± 0.12a g
same,Root length,strawberry seedlings; [3],5.79 ± 0.36a cm
same,Inhibitory effect,S. marcescens,no inhibitory effect
same,Inhibitory effect,Bacillus subtilis,remarkable inhibitory effect
same,Inhibitory effect,E. coli B,slight inhibitory effect
same,Plant height improved compared with 14-hydroxylated brassinosteroid 37.5 μg/L,tomato seedlings; 14.5 μg/L,76%
same,Plant height improved compared with the blank control,tomato seedlings; 14.5 μg/L,84%
same,Root fresh weight improved compared with 14-hydroxylated brassinosteroid 37.5 μg/L,tomato seedlings; 14.5 μg/L,16%
same,Root fresh weight improved compared with the blank control,tomato seedlings; 14.5 μg/L,232%
same,Root length improved compared with 14-hydroxylated brassinosteroid 37.5 μg/L,tomato seedlings; 14.5 μg/L,18%
same,Root length improved compared with the blank control,tomato seedlings; 14.5 μg/L,38%
same,Plant height,tomato seedlings; [1],20.80 ± 0.21a cm
same,Root fresh weight,tomato seedlings; [1],4.05 ± 0.07a g
same,Root length,tomato seedlings; [1],5.39 ± 0.43a cm
same,Inhibitory effect,P. fluorescens,no inhibitory effect
same,Inhibitory effect,Escherichia coli K-12,remarkable inhibitory effect
same,Inhibitory effect,A. ureafaciens,slight inhibitory effect
